Laboratory results: ChEMBL document CHEMBL5727581, “Triazole DAGLα inhibitors” (2020)
pIC50: −log10 of the molar value.

Assays:
[1] = biological target: T1, Diacylglycerol lipase-beta (Homo sapiens, UniProt Q8NCG7); assay: (§1) In Vitro Inhibition of DAGL: Briefly, membrane proteome (1 mg/ml, 20 μL) was prepared from HEK293T cells (transiently transfected with hDAGLα-FLAG or hDAGLα-S472A-FLAG, hDAGLβ-FLAG or hDAGLβ-S443A-FLAG) as described in Example 16. The proteome was incubated at room temperature with vehicle (DMSO) or compound in 0.5 μL DMSO for 30 min. The membrane proteome sample was subsequently treated for 30 min with HT-01 probe (1 μM) or FP-Rh probe (1 μM). The reactions were quenched with 10 μL 3× Laemmli sample buffer (final concentrations: 60 mM Tris-Cl pH 6.8, 2% (w/v) SDS, 10% (v/v) glycerol, 5% (v/v) (3-mercaptoethanol, 0.01% (v/v) bromophenol blue). The samples were directly loaded and resolved on SDS page gel (10% acrylamide). The gels were scanned using a ChemiDoc MP system (Cy3 settings, 605/50 filter).The resolved proteins were transferred from the gels to a polyvinyldifluoride membrane for Western Blotting using a Trans-Blot® Turbo (BioRad). FLAG-tagged enzymes were stained using rabbit anti-FLAG as primary antibody, and goat-anti-rabbit HRP as secondary antibody. The blot was developed in the dark using a 10 mL luminal solution, 100 μL ECL enhancer and 3 μL H2O2. Chemiluminescence was visualized using a ChemiDoc XRS (BioRad).The percentage of DAGL activity remaining in the assayed samples was determined by measuring the integrated optical intensity of the fluorescent protein bands of the Western Blot using image lab 4.1. The relative intensity was compared to the vehicle (DMSO) treated proteins, which were set to 100%. IC50 values were determined by plotting a log(inhibitor) vs. normalized response (Variable slope) dose-response curve generated using Prism software (GraphPad).
T1 sequence (Q8NCG7 whole entry): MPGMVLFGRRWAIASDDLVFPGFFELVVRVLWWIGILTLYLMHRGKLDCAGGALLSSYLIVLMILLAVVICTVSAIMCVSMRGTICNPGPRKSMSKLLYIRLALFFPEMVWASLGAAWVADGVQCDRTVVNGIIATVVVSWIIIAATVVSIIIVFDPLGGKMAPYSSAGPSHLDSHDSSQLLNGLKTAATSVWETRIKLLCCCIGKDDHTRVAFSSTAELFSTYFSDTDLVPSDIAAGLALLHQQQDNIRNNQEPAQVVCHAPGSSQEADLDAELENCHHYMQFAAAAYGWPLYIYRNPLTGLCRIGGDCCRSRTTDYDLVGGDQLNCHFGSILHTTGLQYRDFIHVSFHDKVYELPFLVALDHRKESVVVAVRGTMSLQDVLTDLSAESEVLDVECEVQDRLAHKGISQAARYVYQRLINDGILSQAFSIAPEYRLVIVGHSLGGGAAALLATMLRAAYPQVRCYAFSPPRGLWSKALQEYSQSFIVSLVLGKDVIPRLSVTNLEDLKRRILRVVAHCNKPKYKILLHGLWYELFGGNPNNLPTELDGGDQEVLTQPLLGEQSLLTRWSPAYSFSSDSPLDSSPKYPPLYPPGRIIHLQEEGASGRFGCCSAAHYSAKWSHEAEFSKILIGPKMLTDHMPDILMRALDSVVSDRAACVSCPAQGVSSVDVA

[2] = biological target: T2, Diacylglycerol lipase-alpha (Homo sapiens, UniProt Q9Y4D2); assay: as §1
T2 sequence (Q9Y4D2 whole entry): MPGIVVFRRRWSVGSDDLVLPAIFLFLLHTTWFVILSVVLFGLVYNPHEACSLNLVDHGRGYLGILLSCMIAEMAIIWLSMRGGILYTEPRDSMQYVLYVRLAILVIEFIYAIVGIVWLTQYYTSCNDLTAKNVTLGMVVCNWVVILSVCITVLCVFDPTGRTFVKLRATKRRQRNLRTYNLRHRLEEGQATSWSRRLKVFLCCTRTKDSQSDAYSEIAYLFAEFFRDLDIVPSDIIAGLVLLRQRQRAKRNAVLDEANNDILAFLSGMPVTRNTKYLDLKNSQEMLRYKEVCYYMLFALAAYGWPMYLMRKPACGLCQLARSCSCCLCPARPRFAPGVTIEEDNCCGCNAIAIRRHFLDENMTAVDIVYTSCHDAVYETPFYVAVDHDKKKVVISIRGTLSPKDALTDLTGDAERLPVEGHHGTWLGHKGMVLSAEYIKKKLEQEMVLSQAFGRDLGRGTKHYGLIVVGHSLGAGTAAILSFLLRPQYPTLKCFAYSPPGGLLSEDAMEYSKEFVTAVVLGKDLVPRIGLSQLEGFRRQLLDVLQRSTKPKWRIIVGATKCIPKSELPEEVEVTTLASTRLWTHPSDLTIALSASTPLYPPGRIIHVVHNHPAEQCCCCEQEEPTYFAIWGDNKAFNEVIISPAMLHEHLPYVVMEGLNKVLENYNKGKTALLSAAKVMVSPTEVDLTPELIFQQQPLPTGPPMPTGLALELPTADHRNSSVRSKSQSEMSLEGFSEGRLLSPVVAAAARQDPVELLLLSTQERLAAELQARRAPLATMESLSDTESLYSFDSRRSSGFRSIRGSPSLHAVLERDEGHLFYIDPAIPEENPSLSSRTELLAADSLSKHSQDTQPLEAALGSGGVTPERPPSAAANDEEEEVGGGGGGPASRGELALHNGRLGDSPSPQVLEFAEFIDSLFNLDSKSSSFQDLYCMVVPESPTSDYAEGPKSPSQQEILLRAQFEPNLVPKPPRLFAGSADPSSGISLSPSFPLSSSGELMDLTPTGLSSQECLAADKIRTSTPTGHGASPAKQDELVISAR

In the case of CCC(CC)CN(CCc1ccccc1)C(=O)n1ncc(-c2ccc(OC(F)(F)F)cc2)n1, the pIC50 [1] was > 6.40.

For CCC(CC)CN(CCc1ccccc1)C(=O)n1cc(-c2ccc(OC(F)(F)F)cc2)nn1, the pIC50 [2] was > 6.40 and the pIC50 [1] was > 6.40.
